Assay results published in publication PMC9448861 (Frontiers in Pharmacology, 2022).

Columns and labels:
Format in all cases: in vivo, C57BL/6J mice
[1] = Pharmacokinetics of ketamine and its metabolite hydroxynorketamine in mouse serum, hippocampus and frontal cortex (noncompartmental analysis, LC-MS/MS); details: for AUC0-∞ / Cmax / MRT / t0.5λz / tmax / λz: ketamine 10 mg/kg i.p.
[2] = tested on: mice subjected to CRS and CRS + ZnD; assay: Sucrose preference test (SPT) in mice subjected to CRS or CRS + ZnD
Experimental: (§1) All the compounds/drugs used in the study were obtained commercially, except for hyperforin (sodium salt), which was received as a gift from Dr. Wilmar Schwabe GmbH and Co (Karlsruhe, Germany). […] The control group received only 0.9% NaCl.
(§2) One week after acclimation, the mice were subjected to either a zinc-adequate feed (ZnA, 50 mg/kg) or zinc-deficient/low-Zn feed (ZnD, 3 mg/kg). Beginning from the second week, some ZnD mice were additionally subjected to 3 weeks of CRS. At the beginning of the 5th week, the mice were subjected to their appropriate treatment schedules or behavioral tests (see schemes in the figures).
(§3) CRS was performed in accordance with the procedures of [Ding et al. (2016]) with modifications. Mice from the stress groups were restrained in well-ventilated tubes with caps and holes for breathing (in a separate room from the control groups) for 3 h/day over 3 weeks. After each restraint period, the mice were transferred to housing cages. The control mice were housed at 6 mice per cage in an enriched environment and were handled every third day.
Seven days before the tests, the control and stressed mice were singly housed. The tests were carried out as follows. Two bottles (water and 1% sucrose solution) were placed in each cage 63 h before the test. Twenty-four hours later, the bottles were switched from right to left. Fifteen hours before the tests, the animals were deprived of food, water, and sucrose. The tests lasted 2 h, and sucrose preference was calculated as a percentage of the volume of sucrose intake over the total volume of fluid intake (water and sucrose solution). The SPT was performed during the light phase.

[3] = tested on: mice subjected to CRS and CRS + ZnD; assay: Tail suspension test (TST) in mice subjected to CRS or CRS + ZnD; details: three doses, 72 h after the last treatment
Experimental: as §1, §2, §3
The TST was performed as described in a previous work ([Pochwat et al., 2018]). Briefly, each mouse was suspended individually by the tail using adhesive tape (2 cm from the tail tip) affixed to a solid flat surface, and immobility times were measured for 6 min. […]

[4] = tested on: Zn levels in the Hp and FC; assay: Analysis of zinc (F-AAS) in the Hp and FC; details: CRS + ZnD mice; three doses
Experimental: as §1
The samples were mineralized before the experiments. Briefly, three independent test portions of 0.5 g each were weighed from each sample and transferred to Teflon vessels. Then, 2 mL of 30% H2O2 and 6 mL of 65% HNO3 (V) were added, and the mixture was subjected to wet mineralization in a closed system in a Magnum II mineralizer (ERTEC). Mineralization was carried out for 75 min with three cycles of magnetron operation, where the first 30 min was at 60% power, next 15 min was at 80% power, and the remaining 30 min was at 100% power. The mineralized solution thus obtained was heated on a hot plate at 120 °C for 60 min to remove the excess reagents. The samples were then quantitatively transferred to 10 mL flasks and used to determine the zinc content via the F–AAS method (adsorption and emission technique). An atomic absorption spectrometer (iCE 3500, Thermo Scientific, UK) was used to measure the Zn content; each sample was analyzed independently thrice, and the obtained results are presented as mean value ± standard error of mean (SEM).

With N[C@@]1(c2ccccc2Cl)CCC[C@@H](O)C1=O [Hydroxynorketamine, (2R,6R;2S,6S)-hydroxynorketamine] the “AUC0-∞” value ([1]; frontal cortex, CRS + ZnD mice) was 148.57 µg·min/g, the Cmax ([1]; frontal cortex, CRS + ZnD mice) was 1838.33 ng/g and the MRT ([1]; frontal cortex, CRS + ZnD mice) was 1.137 h. For the same compound, the t0.5λz ([1]; frontal cortex, CRS + ZnD mice) was 52.49 min, the tmax ([1]; frontal cortex, CRS + ZnD mice) was 0.167 h and the λz ([1]; frontal cortex, CRS + ZnD mice) was 0.013 min⁻¹. For the same compound, the “AUC0-∞” value ([1]; frontal cortex, CRS mice) was 154.18 µg·min/g, the Cmax ([1]; frontal cortex, CRS mice) was 2020.00 ng/g and the MRT ([1]; frontal cortex, CRS mice) was 1.212 h. The t0.5λz ([1]; frontal cortex, CRS mice) was 59.38 min, the tmax ([1]; frontal cortex, CRS mice) was 0.167 h and the λz ([1]; frontal cortex, CRS mice) was 0.012 min⁻¹. The “AUC0-∞” value ([1]; frontal cortex, Control mice) was 171.66 µg·min/g, the Cmax ([1]; frontal cortex, Control mice) was 1920.83 ng/g and the MRT ([1]; frontal cortex, Control mice) was 1.245 h. For the same compound, the t0.5λz ([1]; frontal cortex, Control mice) was 50.01 min, the tmax ([1]; frontal cortex, Control mice) was 0.167 h and the λz ([1]; frontal cortex, Control mice) was 0.014 min⁻¹. The “AUC0-∞” value ([1]; hippocampus, CRS + ZnD mice) was 114.29 µg·min/g, the Cmax ([1]; hippocampus, CRS + ZnD mice) was 1540.00 ng/g and the MRT ([1]; hippocampus, CRS + ZnD mice) was 1.172 h. For the same compound, the t0.5λz ([1]; hippocampus, CRS + ZnD mice) was 54.06 min, the tmax ([1]; hippocampus, CRS + ZnD mice) was 0.167 h and the λz ([1]; hippocampus, CRS + ZnD mice) was 0.013 min⁻¹. For the same compound, the “AUC0-∞” value ([1]; hippocampus, CRS mice) was 121.64 µg·min/g, the Cmax ([1]; hippocampus, CRS mice) was 1536.83 ng/g and the MRT ([1]; hippocampus, CRS mice) was 1.213 h. The t0.5λz ([1]; hippocampus, CRS mice) was 54.52 min, the tmax ([1]; hippocampus, CRS mice) was 0.167 h and the λz ([1]; hippocampus, CRS mice) was 0.013 min⁻¹. The “AUC0-∞” value ([1]; hippocampus, Control mice) was 137.36 µg·min/g, the Cmax ([1]; hippocampus, Control mice) was 1591.33 ng/g and the MRT ([1]; hippocampus, Control mice) was 1.349 h. For the same compound, the t0.5λz ([1]; hippocampus, Control mice) was 58.88 min, the tmax ([1]; hippocampus, Control mice) was 0.167 h and the λz ([1]; hippocampus, Control mice) was 0.012 min⁻¹. For the same compound, the “tissue-to-serum ratios for the metabolite as share of the values observed for the parent compound” value ([1]; in the FC) was “about 80%”, the “tissue-to-serum ratios for the metabolite as share of the values observed for the parent compound” value ([1]; in the serum and Hp) was “about 40%” and the Cmax ([1]; serum, CRS + ZnD mice) was 1726.00 ng/mL. For the same compound, the MRT ([1]; serum, CRS + ZnD mice) was 1.22 h, the t0.5λz ([1]; serum, CRS + ZnD mice) was 56.28 min and the tmax ([1]; serum, CRS + ZnD mice) was 0.167 h. The λz ([1]; serum, CRS + ZnD mice) was 0.013 min⁻¹, the Cmax ([1]; serum, CRS mice) was 1269.00 ng/mL and the MRT ([1]; serum, CRS mice) was 1.351 h. It also gave a t0.5λz ([1]; serum, CRS mice) of 59.11 min, a tmax ([1]; serum, CRS mice) of 0.167 h and a λz ([1]; serum, CRS mice) of 0.012 min⁻¹. It also gave a Cmax ([1]; serum, Control mice) of 1152.71 ng/mL, an MRT ([1]; serum, Control mice) of 1.462 h and a t0.5λz ([1]; serum, Control mice) of 62.33 min. For the same compound, the tmax ([1]; serum, Control mice) was 1 h, the λz ([1]; serum, Control mice) was 0.011 min⁻¹ and the “metabolite-to-parent Cmax ratio” value ([1]; serum, control and study groups) was about 1.

With CN(C)CCCN1c2ccccc2CCc2ccccc21 [IMI, imipramine] the “sucrose preference in the SPT” value ([2]; CRS + ZnD mice, 10 mg/kg chronically (14 days), SPT 24 h after the last treatment) was “the same was not observed” and the “sucrose preference in the SPT” value ([2]; CRS mice, 10 mg/kg chronically (14 days), SPT 24 h after the last treatment) was “restored sucrose preference”.

For C[C@@H](CN1CCC(Cc2ccccc2)CC1)[C@@H](O)c1ccc(O)cc1 [Ro, Ro 25–6981], the “immobility time in the TST” value [3] was “ineffective”, the “sucrose preference in the SPT” value ([2]; CRS + ZnD mice, three doses (ketamine 10 mg/kg, Ro 10 mg/kg, Hyp 2.5 mg/kg + Lan 10 mg/kg), 24 h after the last treatment) was “failed to restore sucrose preference” and the “sucrose preference in the SPT” value ([2]; CRS mice, three doses (ketamine 10 mg/kg, Ro 10 mg/kg, Hyp 2.5 mg/kg + Lan 10 mg/kg), 24 h after the last treatment) was “did not show any statistically significant antidepressant-like activities”. The “Zn levels in the Hp and FC” value [4] was “reduced the Zn levels”.
